Measured values from patent publication US8895502B2, “β2-glycoprotein I peptide inhibitors” (Kansas State University Research Foundation, priority 2010, dated 2014).
Ends that are not written are not given here.

What was measured:
[1] = tested on: hypoxic MS-1 endothelial cells; assay: In vitro hypoxia and immunocytochemistry: β2-GPI / anti-β2-GPI mAb binding to hypoxic endothelial cells; type: cell-based, mouse; details: peptide 40 μM during 4 hours hypoxia
Method: MS-1 endothelial cells were subjected to hypoxia or normoxia to validate β2-GPI binding in vitro. Hypoxic MS-1 endothelial cells (ATCC CRL-2279) received degassed, serum-free DMEM and were placed in a hypoxia chamber containing 94% nitrogen and 5% CO2. Normoxic cells received DMEM supplemented with 10% heat-inactivated sera from Rag-1^−/− mice in 8% CO2. After 4 hours at 37° C., all cells received fresh medium containing 10% heat-inactivated Rag-1^−/− sera and were incubated in normoxic conditions for 1 hour at 37° C. Additional peptide-inhibition studies were performed by addition of peptides (40 μM final concentration) during the hypoxic period. Cells were methanol fixed and stained with the anti-β2-GPI mAb (Millipore; Billerica, Mass.) followed by an anti-mouse IgG antibody to determine β2-GPI binding. Anti-β2-GPI binding was determined by allowing anti-β2-GPI mAb (Millipore) to bind during the 1 hour normoxic period. The cells were then stained with anti-mouse IgG antibodies (Jackson ImmunoResearch; West Grove, Pa.) as previously described (Fleming, S. D. et al., J. Immunol. 173:7055-7061 (2004)). Slides were mounted with DAPI (Blue) to identify the nuclei. The fluorescence was determined in a blind manner using a Nikon 80i fluorescent microscope with a 40× Plan Fluor objective and images acquired using a CoolSnap Cf camera (Photometrics; Tucson, Ariz.) and MetaVue Imaging software (Molecular Devices; Sunnyvale, Calif.). Each photomicrograph in the Figures is representative of 3 experiments with 4-6 photomicrographs per treatment group in each experiment. Bar=40 μm. Hypoxia was conducted similar to previous studies with the following modifications (Banerjee, S. et al., Reprod. Biol. Endocrinol. 7:4 (2009)). Hypoxic cells received degassed, serum-free DMEM and were placed in a hypoxia chamber containing 94% nitrogen, 5% CO2, and 1% O2. Normoxic cells received normal DMEM with 10% FBS in 8% CO2. After 2 hours at 37° C., all cells received fresh medium containing 10% heat-inactivated Rag-1^−/− sera and then were incubated under normoxic conditions for 1 hour at 37° C. Cells receiving β2-GPI peptides were administered the peptides (40 μM) during the 2 hours of either hypoxia or normoxia. IgG binding was determined using anti-mouse IgG antibodies (Jackson ImmunoResearch) as previously described (Fleming, S. D. et al., J. Immunol. 173:7055-7061 (2004)). Similarly, after Sham or IR, intestinal sections from peptide-treated mice were stained with anti-IgG antibodies to determine antibody deposition. The fluorescence was determined in a blind manner using a Nikon 80i fluorescent microscope and images acquired using a CoolSnap Cf camera (Photometrics) and MetaVue Imaging software (Molecular Devices).

[2] = tested on: thioglycollate-elicited macrophages, nitric oxide; assay: β2-GPI stimulated macrophage nitric oxide production; type: cell-based; details: mouse β2-GPI 10 μg/mL, peptide 40 μM, 18 hours
Method: C57Bl/6 mice were injected i.p. with 1 mL thioglycollate (4%) 4 days prior to peritoneal lavage. Peritoneal exudate macrophages or the B cell line, LK35.2, were seeded at 2×10^6 cells/mL in 24-well or 96-well plates. After macrophage adherence, both cell types were treated with mouse β2-GPI (10 μg/mL) with or without peptide (40 μM). Additional cells were unstimulated as a negative control or stimulated with 10 μg/mL LPS (E. coli 055B5) as a positive control. Supernatants were collected 18-20 hours after stimulation and analyzed for nitrite by Griess reagent (Hoffman & Fleming, Cell Biochem. Funct. 28:686-694 (2010)) or IL-6 by Milliplex MAP kit (Millipore) following the manufacturer's instructions using a Luminex 200 with xPONENT 3.1 and Analyst software (Millipore).

peroxidase = assay: Intestinal IR, total tissue peroxidase; type: in vivo, mouse; details: for total peroxidase production by the intestinal tissues: administered up to 60 min post-reperfusion
Method: Ischemia/reperfusion was performed on ketamine/xylazine anesthetized mice as described in Example 1 above. After 2 hours of reperfusion, the mice were euthanized and sera, liver, spleen, and 2 cm sections of the small intestine, approximately 10 cm distal to the gastroduodenal junction, were collected for histological and other analyses. Mice treated with the various β2-GPI peptides underwent the same procedure with i.v. administration of the peptides. Most studies assumed 2 mL total blood volume in a mouse and administered peptides to a final concentration of 40 μM at 5 min prior to ischemia. Dose response studies administered 1-40 μM peptide at 5 min prior to ischemia and time course studies administered 40 μM peptide at 5 min prior to ischemia, and at 15-, 30- or 60-min post-ischemia (i.e., during reperfusion).
Total peroxidase, LTB4, PGE2, IL-6, IL-12p40, and IL-12p70 concentrations were determined using the procedures described in Example 1.

[3] = tested on: Fvb/N-Tg(MMTV-PyVT)634Mul/J mice mammary tumors; assay: Spontaneous breast cancer model, tumor growth; type: in vivo, mouse; details: 40 μM retro-orbital 3 times per week for 7 weeks after palpable tumor
Method: Ten […] Fvb/N-Tg(MMTV-PyVT)634Mul/J mice were generously donated by T. A. Nguyen and maintained under 12 h light/dark cycles at Kansas State University, Division of Biology (Manhattan, Kans.). These mice are Her2^+ Estrogen receptor α/β^+, Progesterone receptor^+, p53^+ animal models that spontaneously develop breast cancer. All mice were allowed access to food and water ad libitum and maintained under specific pathogen free conditions. Research was conducted in compliance with the Animal Welfare Act and other federal statutes and regulations relating to animals and experiments involving animals and was approved by the Institutional Animal Care and Use Committee.
Mice were observed 3 times a week until tumors were palpable. Randomly, mice were assigned to receive treatment with N. Saline or peptide 296c-s. Each peptide treated mouse received β2-Glycoprotein 1 Peptide 296c-s (40 μM) by retro-orbital injection three times a week for 7 additional weeks. N. Saline treated mice received the same volume (80 μL) of 0.15M normal saline retro-orbitally three times a week as a control group.
Tumors were measured by hand with calipers three times a week for 7 weeks after the start of injection. After 7 weeks, the mice were briefly anesthetized using isofluorene followed by cervical dislocation euthanization and the tumors were harvested. The tumors were measured volumetrically. […]

[4] = dose response, similar concentrations of each peptide
[5] = peptide administered prior to IR

Row | Substance | anti-β2-GPI mAb binding to hypoxic MS-1 cells [1] | β2-GPI binding to hypoxic endothelial cells [1] | β2-GPI-induced nitric oxide production [2] | total peroxidase production by the intestinal tissues (peroxidase) | intestinal peroxidase production (peroxidase; [4]) | intestinal peroxidase production (peroxidase; [5]) | percent tumor growth compared to initial measurements [3]
1 | H-IHFYCKNKEKKCSYTVEAHCRDGTI-OH (cysteine pairing not given here) [peptide 296] | did not bind | capable of preventing β2-GPI from binding | – | – | – | – | –
2 | H-IHFYSKNKEKKSSYTVEAHSRDGTI-OH [peptide 296Cys-Ser] | – | attenuated β2-GPI binding | significantly attenuated | significantly decreased | attenuated | significantly attenuated | significantly decreased
3 | H-IPSCFKEHSSLAFWKTDASELTPC-NH2 (cysteine pairing not given here) [peptide 322, 18] | did not inhibit antibody binding | – | – | – | – | – | –
4 | H-KKCSYTVEAHCRDGTIEIPSCFKEHS-OH (cysteine pairing not given here) [peptide 305, 10] | did not bind | capable of preventing β2-GPI from binding | significantly attenuated | significantly decreased | attenuated | significantly attenuated | –
5 | H-KNISFACNPGFFLNG-NH2 [peptide 100, 16, reference compound] | did not inhibit antibody binding | – | – | – | – | – | –
